Tests used:
Type in all cases: in vivo, human
[1] = topical treatment of chronic dermatoses with scaly skin and itch, clinical evaluation; details: Example 11: subject
Text: The subject topically applied twice daily a pentapeptide derivative, N-Ac-L-Ala-L-Leu-L-Lys-L-His-L-Arg-NH2 (SEQ ID NO: 51) 0.2% (w/v) in WEP442, pH 3.4, as prepared in Example 2. […] The treated skin had 80-90% improvement as judged by clinical evaluation.

[2] = summary of test results in volunteer subjects, efficacy grades; details: efficacy grade
Text: Subject 1. Person had multiple red and itchy inflammation, dermatitis, or eczema lesions, which were resistant to conventional treatments including corticosteroids. Subject 2. Person had small red and itchy lesions which were resistant to topical corticosteroid treatment. Subject 3. Person had multiple red and itchy inflammation, dermatitis, or eczema lesions over the body for many years, which were resistant to conventional treatments including corticosteroids. Subject 4. Person had red and itchy inflammation, dermatitis, or eczema lesions for many years, which were resistant to topical corticosteroid treatment. Subject 5. Person had early stage of aging related skin changes on both forearms as indicated by age spots and wrinkled skin caused by solar damage. Subject 6. Person had age spots, keratoses and wrinkles on both forearms caused by intrinsic and extrinsic aging. Subject 7. Person had age spots, and wrinkles on both forearms caused by intrinsic and extrinsic aging. Subject 8. Person had osteoarthritis of both knees with inflammation and pain for more than 4 years, and had only mild transitory relief from conventional treatments. Subject 9. Person had sensitive skin with inflammatory lesions on the body. Subject 12. Person had dermatitis and inflammatory lesions on the left palm. Subject 14. Person had multiple age spots including lentigines and keratosis on their face. Subject 15. Person had psorisis Subject 16. Person had sensitive skin and eczema for more than 40 years
In another embodiment, the volunteer subject topically applied the test compositions containing N-acylpeptide derivatives of the present invention on involved skin or lesions once or twice daily for several weeks or until the involved lesions completely cleared and clinically changed to normal skin. As a control study, the subject also topically applied a vehicle control composition on the involved skin or lesions twice daily for the same period.
In yet another embodiment, the volunteer subject topically applied once or twice daily the test compositions containing N-acylpeptide derivatives of the present invention on the skin site above arthritic joints or painful muscles to provide therapeutic effects for the systemic disorders via topical administration.
In yet another embodiment, the volunteer subject injected intra-articularly into a knee joint a test composition containing a N-acylpeptide derivative of the present invention to improve and reduce arthritic inflammation and pain of the joint.
Some test results are summarized as follows.
DK: Disturbed keratinization AG: Aging related changes of skin, nail and hair DI: Deranged immune disorders and inflammation ND: Nerve disorders CA: Tumors and/or cancers

[3] = appetite for food after topical application on forehead; details: Example 12: subject, 0.3% (w/v) in WEP442 once on forehead one hour before dinner
Experimental: A subject, having normal and regular eating habit, topically applied once N-Ac-L-Tyr-L-Tyr-L-Tyr-NH2, 0.3% (w/v) in WEP442, pH 5.9 prepared according to Example 2 on their forehead one hour before the regular dinner time. After about 50-60 minutes of the topical application, the subject strated to feel loss of appetite for food.

[4] = topical treatment of chronic inflammation, erythema, eczema with thick scales and itch, clinical evaluation; details: Example 10: subject, -NH2 0.3% and -OEt 0.5% (w/v) in WEP442
Text: The involved skin was divided into two lesions for testing. The subject topically applied twice daily to one lesion, N-Ac-L-Tyr-L-Tyr-L-Tyr-NH2 0.3% (w/v) in WEP442, pH 5.9 solution composition, prepared according to Example 2, and to second lesion, N-Ac-L-Tyr-L-Tyr-L-Tyr-OEt 0.5% (w/v) in WEP 442, pH 6.0, prepared according to Example 2. […] The treated skin had 90-95% improvement as judged by clinical evaluation.

[5] = topical treatment of plaque psoriasis, clinical evaluation; details: Example 13: subject, 0.2% (w/w) in cream twice daily, 3 weeks
Text: A subject, having plaque psoriasis, topically applied twice daily N-Ac-L-Tyr-L-Tyr-L-Tyr-NH2 0.2% (w/w) in cream to plaque lesions for 3 weeks. The treated lesions started to improve after a few days of topical application. […] The treated lesions had 40-50% improvement as judged by clinical evaluation.

[6] = skin plump / skin thickness test after topical application, caliper measurement
Experimental: In one of the studies related to skin changes associated with aging, skin thickness was measured by micrometer calipers as follows.
The skin was grasped with a 2×6 cm metal hinge: the internal faces of which were coated with emery cloth to prevent slippage, and manually squeezed to threshold subject discomfort. Combined thickness of two whole-skin layers including thickness of the two hinge leaves was measured with micrometer calipers. Thickness of the two hinge leaves was subtracted to determine the actual thickness of two whole-skin layers. Triplicate measurements on treated sites were done and an average number was used for calculation of the skin thickness.
In other studies, test sites of skin 17 mm in diameter were used, the circular sites were marked with permanent ink. Intervening control sites were also 17 mm in diameter. Thickness of skin of all sites was measured directly by means of an electronic digital caliper. In this instance the jaws of the caliper were opened to 17 mm, applied with pressure to the skin sites and then closed to firm tightness. Thickness of skin was then read off the screen of the calipers. Measurements of all sites were made in triplicates. […]

[7] = topical treatment of bilateral inter-metacarpal atrophy of hands; details: Example 23: subject, 1% (w/v) in WEP442 twice daily after the first course
Text: A subject had bilateral inter-metacarpal atrophy of both hands with certain restrictions of hand movements. The subject topically applied two to three times daily N-Ac-L-Tyr-L-Tyr-L-Tyr-OEt, 2% (w/v) in EP73 on the back of their left hand, and vehicle control EP73 on the back of their right hand for three weeks.
The subject now, topically applied twice daily N-Ac-L-Tyr-L-Tyr-L-Tyr-NH2, 1% (w/v) in WEP442 on the back of their left hand as a mantenace therapy.

[8] = anxiety, stress and mood disorders after topical application on forehead; details: Example 16: subject, 0.2% in WEP442 on forehead, after two hours
Text: A subject had mild forms of anxiety, stress and mood disorders which provoked restlessness, lack of concentration, and mild depression. […] The subject then topically applied N-Ac-L-Val-L-Tyr-L-Tyr-NH2, 0.2% in WEP442 on their forehead.

| Substance | AG: Aging related changes of skin, nail and hair [2] | DI: Deranged immune disorders and inflammation [2] | DK: Disturbed keratinization [2] | ND: Nerve disorders [2] | other results |
| --- | --- | --- | --- | --- | --- |
| N-Ac-L-Ala-L-Leu-L-Lys-L-His-L-Arg-NH2 (Ac-ALKHR-NH2) | 3+ (3+: 75% Efficacy) | 4+ (4+: 95-100% Efficacy) | 3+ (3+: 75% Efficacy) | 3+ (3+: 75% Efficacy) | itch ([1]; 0.2% (w/v) in WEP442 pH 3.4 topical): stopped within a few minutes; improvement as judged by clinical evaluation ([1]; right leg, 0.2% (w/v) in WEP442 pH 3.4 twice daily, 2 weeks): 80-90% |
| N-Ac-L-Arg-L-Arg-L-Arg-NH2 | 2+ (2+: 50% Efficacy) | 2+ (2+: 50% Efficacy) | 2+ (2+: 50% Efficacy) | 2+ (2+: 50% Efficacy) |  |
| N-Ac-L-Ser-L-Ser-L-Ser-NH2 | 2+ (2+: 50% Efficacy) | 2+ (2+: 50% Efficacy) | 2+ (2+: 50% Efficacy) | 2+ (2+: 50% Efficacy) |  |
| N-Ac-L-Tyr-L-Tyr-L-Tyr-NH2 | 4+ (4+: 95-100% Efficacy) | 4+ (4+: 95-100% Efficacy) | 4+ (4+: 95-100% Efficacy) | 4+ (4+: 95-100% Efficacy) | amount of food eaten at dinner [3]: only half the amount of food they usually would consume; time after topical application until loss of appetite for food was felt [3]: 50 to 60 min; itch [4]: stopped within a few minutes; improvement of treated lesions as judged by clinical evaluation [5]: 40-50%; increase in skin thickness ([6]; Example 8: subject, severe photodamage, right wrist distal, 0.5% (w/v) in WEP721 three times daily, 7 days): 5-10%; increased skin thickness ([6]; Example 20: subject, photoaging forearms, 0.8% (w/v) in WEP442 three times daily, four weeks): ~15%; increased skin thickness ([6]; Example 20: subject, photoaging forearms, 1% (w/v) in WEP442 three times daily, four weeks): ~28%; increased skin thickness ([6]; Example 21: subject, sun damaged forearms, 1% (w/v) in WEP442 three times daily, one week): ~24%; inter-metacarpal atrophy of left hand, maintenance therapy [7]: continued to improve with no signs of inter-metacarpal atrophy |
| N-Ac-L-Val-L-Tyr-L-Tyr-NH2 | 3+ (3+: 75% Efficacy) | 2+ (2+: 50% Efficacy) | 2+ (2+: 50% Efficacy) | 4+ (4+: 95-100% Efficacy) | effect on anxiety, stress and mood disorders [8]: anxiety, stress and mood disorders started to disappear |
| N-Ac-L-Val-L-Val-L-Ala-NH2 | 2+ (2+: 50% Efficacy) | 2+ (2+: 50% Efficacy) | 2+ (2+: 50% Efficacy) | 3+ (3+: 75% Efficacy) |  |
| N-Bz-L-Ala-L-Leu-L-Lys-L-His-L-Arg-NH2 (ALKHR; HELM PEPTIDE1{[O=C(c1ccccc1)[*:2]].A.L.K.H.R.[am]}$$$$V2.0; SMILES CC(C)C[C@H](NC(=O)[C@H](C)NC(=O)c1ccccc1)C(=O)N[C@@H](CCCCN)C(=O)N[C@@H](Cc1c[nH]cn1)C(=O)N[C@@H](CCCNC(=N)N)C(N)=O) | 4+ (4+: 95-100% Efficacy) | 3+ (3+: 75% Efficacy) | 3+ (3+: 75% Efficacy) | 2+ (2+: 50% Efficacy) |  |
| N-Pr-L-Ala-L-Leu-L-Lys-L-His-L-Arg-NH2 (ALKHR; HELM PEPTIDE1{[CCC(=O)[*:2]].A.L.K.H.R.[am]}$$$$V2.0; SMILES CCC(=O)N[C@@H](C)C(=O)N[C@@H](CC(C)C)C(=O)N[C@@H](CCCCN)C(=O)N[C@@H](Cc1c[nH]cn1)C(=O)N[C@@H](CCCNC(=N)N)C(N)=O) | 2+ (2+: 50% Efficacy) | 2+ (2+: 50% Efficacy) | 2+ (2+: 50% Efficacy) | 2+ (2+: 50% Efficacy) |  |

— patent US20170112748A1, “N-ACYLPEPTIDE DERIVATIVES AND THEIR USES” (NeoStrata Company, Inc., priority 2012, published 2017)
